Measurements taken from patent publication US11656221B2, “Methods to identify modulators of actin-binding proteins” (Regents of the University of Minnesota, priority 2019, dated 2023).
Entries after “also recorded” stand apart in the source; their conditions may differ. Where two headings read alike, the source gives them in different places.

Tests used:
HEK293-6E cells = experiment: Trypan blue cell viability assay; assay type: cell-based; conditions: 10 μM, 3 hr incubation
Description: HEK293-6E cell viability was measured using trypan blue (0.03%) staining and a Countess Automated Cell counter (Invitrogen). Non-transfected HEK293-6E cells were spun at 100×g for 5 min at 21° C., and resuspended in 10 mL of PBS. The centrifugation and resuspension were repeated twice more. Final cell concentration was 1×10^6 cells/mL. Cells were incubated with 2% DMSO, or 3-50 μM compound (as indicated) for 3 hrs at room temperature (21° C.). After addition of 100 μL of 0.06% trypan blue solution in PBS, 10 μL was loaded on a slide and injected into the cell counter, and cell viability was measured.

mammalian cells = conditions: cited from earlier work
[1] = target: T1, ternary complex consisting of GFP-ABD-L253P, Lifeact-mCherry, and actin (Homo sapiens, UniProt O15020, L253P); experiment: Primary live-cell time-resolved FRET assay (GFP-ABD-L253P plus Lifeact-mCherry); assay type: cell-based; conditions: LOPAC compounds 10 μM, 120 min
T1 construct: L252P β-III-spectrin (human) ABD residues 1-284; expressed in transfected cells; host or cells: HEK293-6E, pTT5 vector, transient

[2] = target: T2, Lifeact-mCherry binding to F-actin (Oryctolagus cuniculus, UniProt P68135); experiment: F-actin and Lifeact-mCherry co-sedimentation assay; parameters: species or system New Zealand white rabbit (Oryctolagus cuniculus); conditions: 10 μM
T2 construct: Actin was purified from acetone powder derived from the psoas muscle; made in house; host or cells: actin from rabbit psoas muscle; Lifeact-mCherry from E. coli, pE-SUMOpro
Description: Actin was purified from acetone powder derived from the psoas muscle of New Zealand white rabbit (Oryctolagus cuniculus). Filamentous (F)-actin was stored for up to 3 days on ice before use in binding assays. Within an hour of the binding assay, the F-actin was clarified at 100,000×g at 4° C. for 10 min prior to setting up binding assays. The L253P β-III-spectrin ABD was expressed in E. coli BL21(DE3) (Novagen). The ABD was purified and the His-SUMO tag proteolytically removed, as previously described, except size-exclusion chromatography was not performed due to the high purity of the ABD protein. Lifeact-mCherry protein was similarly prepared. A Bradford assay was performed to determine clarified F-actin and ABD protein concentrations.
F-actin and ABD binding assays were performed as previously described. In brief, binding assays used 1 μM ABD protein, 1 μM F-actin and 1-50 μM compound (as indicated) or DMSO control for a total reaction volume of 60 μL in F-buffer containing 10 mM Tris, pH 7.5, 150 mM NaCl, 0.5 mM ATP, 2 mM MgCl2, and 1 mM DTT. Following 30 min incubation at room temperature (21° C.). F-actin was pelleted using centrifugation at 100,000×g at 25° C. for 30 min. Unbound ABD in the supernatant was measured following SDS-PAGE and Coomassie blue staining in accord. In addition, control co-sedimentations assays that lacked actin were performed to test if compounds cause ABD aggregation. F-actin and Lifeact-mCherry binding assays were undertaken with 2 μM Lifeact-mCherry, 30 μM F-actin and 1-50 μM compound (as indicated) or DMSO control for a total reaction volume of 80 μL in F-buffer. For a no-actin binding control, an assay sample with no F-actin was also set up. Binding reactions were allowed to reach equilibrium at room temperature (21° C.) for 30 min and then F-actin was pelleted by centrifugation at 100,000×g at 25° C. for 30 min. The amount of unbound Lifeact-mCherry was sampled by loading 7 μL of spin supernatant on a low volume black bottom 384-well plate (Greiner). Amount of mCherry was determined by acquiring fluorescence spectrum peak intensity at ˜600 nm using a spectral unmixing plate reader (Fluorescence Innovations, Inc) equipped with a 532 nm laser (Laserglow Technologies, Ontario, Canada) for excitation, 532 nm longpass filter for emission, and PMT for emission detection. The fraction of Lifeact-mCherry bound to F-actin was determined by subtracting from one the fraction of supernatant fluorescence intensity relative to the no-actin control sample, using the following equation:
[formula] • Where Fcontrol/DMSO is the peak mCherry fluorescence of assay samples containing compound or DMSO control, and Fno-actin is the peak mCherry fluorescence of assay samples that contained no F-actin. 2.9 Trypan Blue Cell Viability Assays

[3] = target: T3, GFP-ABD-L253P and Lifeact-mCherry on actin filaments (Homo sapiens, UniProt O15020, L253P); experiment: Live-cell FRET assay after actin depolymerization (Example 2); assay type: cell-based; conditions: 60 min treatment
T3 construct: expressed in transfected cells; host or cells: HEK293.2sus (ATCC CRL-1573.3), pcDNA3.1(+), transient
Excerpt: Expression constructs. FRET donor and acceptor constructs were generated using the plasmid expression vector, pcDNA3.1(+) (Invitrogen). The coding sequence for Lifeact-mCherry was PCR amplified from mCherry-Lifeact-7 (Addgene, plasmid #54491) using the oligonucleotides, […] and […], and ligated into pcDNA3.1(+) using the restriction enzymes Kpn1 and Xba1, resulting in the construct pcDNA3.1-Lifeact-mCherry. To generate GFP-ABD expression constructs, a mEGFP DNA construct with flanking Kpn1 and EcoR1 restriction sites, was synthesized (Integrated DNA Technologies). The mEGFP sequence was subcloned into pcDNA3.1(+) using Kpn1 and EcoR1 restriction enzymes, resulting the in the construct, pcDNA3.1-GFP. DNA sequences encoding the wild-type or L253P human β-III-spectrin ABD (amino acids 1-284, NCBI reference sequence NP_008877.1) were PCR amplified from pE-SUMO-ABD-WT or -L253P (Avery, 2017 PMID: 29116080) using the oligonucleotides […] and […], and inserted into pcDNA3.1-GFP using EcoR1 and Xba1 restriction enzymes. The resulting constructs, pcDNA3.1-GFP-ABD-WT and -L253P, along with pcDNA3.1-Lifeact-mCherry, were sequence verified. […]
FRET Measurement. FRET in live cells was measured using a Fluorescence Lifetime (FLT) Plate Reader (FLTPR) (Fluorescence Innovations). […]

actin filaments = conditions: cited from earlier work

T3 sequence (O15020 1-284 L253P): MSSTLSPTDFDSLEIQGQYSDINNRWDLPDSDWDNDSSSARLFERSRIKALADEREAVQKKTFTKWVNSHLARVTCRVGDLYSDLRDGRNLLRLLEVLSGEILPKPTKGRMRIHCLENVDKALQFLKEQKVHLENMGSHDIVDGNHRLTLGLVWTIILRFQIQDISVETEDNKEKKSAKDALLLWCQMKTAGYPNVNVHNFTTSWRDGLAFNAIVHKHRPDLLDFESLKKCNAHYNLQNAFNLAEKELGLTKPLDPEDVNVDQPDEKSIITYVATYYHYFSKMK
T1 sequence (O15020 1-284 L253P, one chain of several): as the sequence (O15020 1-284 L253P) above

| Compound | effect on HEK293-6E cell viability (HEK293-6E cells) | reported effect on cell viability (mammalian cells) | effect on FRET in primary screen (Hit, 4SD threshold) [1] | effect on Lifeact-mCherry binding with actin [2] | effect on FRET between GFP-ABD-L253P and Lifeact-mCherry [3] | further results |
| --- | --- | --- | --- | --- | --- | --- |
| CCCCCCCCCCCCCCCC(=O)OC(CC(=O)[O-])C[N+](C)(C)C (racemic) [palmitoyl-DL-carnitine] | dramatically reduced cell viability; also recorded: reduces HEK293-6E cell viability | reported to reduce cell viability | decrease FRET | decreased actin-Lifeact co-sedimentation; also recorded: reduce Lifeact-mCherry binding with actin |  |  |
| Clc1ccc(C(c2ccc(Cl)cc2)n2cc[n+](CC(OCc3ccc(Cl)cc3Cl)c3ccc(Cl)cc3Cl)c2)cc1 (stereo not drawn) [calmidazolium] | dramatically reduced cell viability; also recorded: reduces HEK293-6E cell viability | reported to reduce cell viability | decrease FRET | decreased actin-Lifeact co-sedimentation; also recorded: reduce Lifeact-mCherry binding with actin |  |  |
| C/C1=C/C(=O)O[C@@H]2C[C@@H](CC[C@H](C)/C=C\C=C\CC1)O[C@@](O)([C@@H]1CSC(=O)N1)C2 [latrunculin A] |  |  |  |  | significantly reduce FRET; also recorded: decrease in FRET |  |
| C/C1=C/C(=O)O[C@@H]2C[C@@H](CC[C@H](C)/C=C\CC1)O[C@@](O)([C@@H]1CSC(=O)N1)C2 [latrunculin B] |  |  |  |  | significantly reduce FRET; also recorded: decrease in FRET |  |
| K255E α-actinin-4: α-actinin-4 carrying the disease mutation K255E |  |  |  |  |  | Kd (actin filaments; mutant ABD proteins): 0.046 µM |
| wild-type: wild-type dystrophin, comparator for L212P |  |  |  |  |  | Kd (actin filaments; wild-type dystrophin, Singh et al.): ~45 µM |
